From patent publication US20230277444A1, “FORMULATIONS OF PTHrP ANALOGUES, TRANSDERMAL PATCHES THEREOF, AND USES THEREOF” (priority 2018, published 2023)

How the values were obtained:
[1] = cynomolgus monkey, in vivo, sc
in vivo = conditions: female, Chinese Cynomolgus, cynomolgus monkey, sc

AUC [1]: 131610
Cmax (in vivo): 3.34 ng/mL
Tmax (in vivo): 7 min
half-life (in vivo): 14 min
level at 5 min (in vivo): 1.9 ng/mL
level at 10 min (in vivo): 0.88 ng/mL
level at 20 min (in vivo): 0.542 ng/mL
level at 0.5 h (in vivo): 0.222 ng/mL
level at 1 h (in vivo): 0.12 ng/mL
Compound: CC[C@H](C)[C@H](NC(=O)[C@H](CO)NC(=O)[C@H](CCCCN)NC(=O)CNC(=O)[C@H](CCCCN)NC(=O)[C@H](CC(=O)O)NC(=O)[C@H](Cc1cnc[nH]1)NC(=O)[C@H](CC(C)C)NC(=O)[C@H](CC(C)C)NC(=O)[C@H](CCC(N)=O)NC(=O)[C@H](Cc1cnc[nH]1)NC(=O)[C@H](CCC(=O)O)NC(=O)[C@H](CO)NC(=O)[C@@H](NC(=O)[C@H](C)N)C(C)C)C(=O)N[C@@H](CCC(N)=O)C(=O)N[C@@H](CC(=O)O)C(=O)N[C@@H](CC(C)C)C(=O)N[C@@H](CCCNC(=N)N)C(=O)N[C@@H](CCCNC(=N)N)C(=O)N[C@@H](CCCNC(=N)N)C(=O)N[C@@H](CCC(=O)O)C(=O)N[C@@H](CC(C)C)C(=O)N[C@@H](CC(C)C)C(=O)N[C@@H](CCC(=O)O)C(=O)N[C@@H](CCCCN)C(=O)N[C@@H](CC(C)C)C(=O)N[C@@H](CC(C)C)C(=O)NC(C)(C)C(=O)N[C@@H](CCCCN)C(=O)N[C@@H](CC(C)C)C(=O)N[C@@H](Cc1cnc[nH]1)C(=O)N[C@H](C(=O)N[C@@H](C)C(N)=O)[C@@H](C)O [Abaloparatide, [Glu^22,25, Leu^23,28,31, Aib^29, Lys^26,30]hPTHrP(1-34)NH2]
